Measured values as given in US11116760B2 (Gilead Sciences, Inc., priority 2018, dated 2021).

Biological target: α4β7 integrin (Homo sapiens (Human), UniProt P13612+P26010)
Test: α4β7 Integrin Cell Capture Assay
Type: cell-based
[1] = Table 2, capture of α4β7 expressing RPM18866 cells on MadCAM-1 extracellular domain-coated plate
[2] = Table 1, capture of α4β7 expressing RPM18866 cells on MadCAM-1 extracellular domain-coated plate
[3] = RPMI8866 cells captured on MadCAM-1 extracellular domain-coated plate

Chain of α4β7 integrin (P13612 34-1032): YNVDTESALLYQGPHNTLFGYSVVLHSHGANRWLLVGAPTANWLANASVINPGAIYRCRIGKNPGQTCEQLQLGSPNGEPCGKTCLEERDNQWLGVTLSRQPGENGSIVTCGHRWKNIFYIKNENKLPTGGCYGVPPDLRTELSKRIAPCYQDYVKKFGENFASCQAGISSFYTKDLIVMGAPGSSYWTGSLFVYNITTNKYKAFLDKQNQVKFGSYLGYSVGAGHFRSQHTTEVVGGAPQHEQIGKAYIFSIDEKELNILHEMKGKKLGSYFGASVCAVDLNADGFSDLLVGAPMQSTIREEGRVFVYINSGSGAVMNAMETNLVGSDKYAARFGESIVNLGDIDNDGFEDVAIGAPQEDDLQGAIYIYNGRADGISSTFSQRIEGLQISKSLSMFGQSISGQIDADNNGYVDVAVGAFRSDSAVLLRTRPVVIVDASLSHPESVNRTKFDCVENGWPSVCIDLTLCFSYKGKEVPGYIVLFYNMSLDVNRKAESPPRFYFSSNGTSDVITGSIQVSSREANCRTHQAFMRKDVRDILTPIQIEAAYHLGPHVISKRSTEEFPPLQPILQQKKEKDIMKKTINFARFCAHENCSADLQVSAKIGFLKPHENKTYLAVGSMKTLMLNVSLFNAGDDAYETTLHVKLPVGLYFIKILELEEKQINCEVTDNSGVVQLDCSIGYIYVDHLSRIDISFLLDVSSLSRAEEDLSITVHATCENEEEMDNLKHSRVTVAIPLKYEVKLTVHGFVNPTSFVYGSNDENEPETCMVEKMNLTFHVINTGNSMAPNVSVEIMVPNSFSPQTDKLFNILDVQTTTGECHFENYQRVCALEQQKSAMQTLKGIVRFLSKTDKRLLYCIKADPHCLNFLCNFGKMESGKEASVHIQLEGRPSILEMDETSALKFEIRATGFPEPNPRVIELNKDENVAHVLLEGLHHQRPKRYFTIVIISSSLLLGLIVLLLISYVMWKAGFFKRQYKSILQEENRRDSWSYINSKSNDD
Chain of α4β7 integrin (P26010 20-798): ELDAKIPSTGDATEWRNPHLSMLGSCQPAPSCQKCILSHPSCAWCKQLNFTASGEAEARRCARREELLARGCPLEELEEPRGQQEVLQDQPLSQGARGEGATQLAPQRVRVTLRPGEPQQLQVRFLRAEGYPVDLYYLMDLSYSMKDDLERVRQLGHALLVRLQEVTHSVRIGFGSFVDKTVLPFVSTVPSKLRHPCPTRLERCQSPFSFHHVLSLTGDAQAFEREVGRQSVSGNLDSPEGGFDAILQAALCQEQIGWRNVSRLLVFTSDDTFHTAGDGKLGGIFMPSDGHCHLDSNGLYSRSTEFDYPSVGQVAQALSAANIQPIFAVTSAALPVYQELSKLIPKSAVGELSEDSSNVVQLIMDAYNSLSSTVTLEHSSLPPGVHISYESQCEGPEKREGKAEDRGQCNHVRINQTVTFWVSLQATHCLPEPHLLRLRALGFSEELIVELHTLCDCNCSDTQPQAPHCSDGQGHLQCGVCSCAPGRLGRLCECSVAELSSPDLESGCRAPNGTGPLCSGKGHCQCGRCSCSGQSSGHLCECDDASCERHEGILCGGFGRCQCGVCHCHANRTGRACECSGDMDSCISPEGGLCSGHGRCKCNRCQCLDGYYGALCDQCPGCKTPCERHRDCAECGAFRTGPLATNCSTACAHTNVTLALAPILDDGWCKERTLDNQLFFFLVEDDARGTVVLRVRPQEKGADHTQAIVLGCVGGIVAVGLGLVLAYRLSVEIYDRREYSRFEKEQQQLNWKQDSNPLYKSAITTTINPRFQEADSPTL

Row | Compound | EC50 [1] | EC50 [2] | other results
1 | CCc1nc(-c2ccc(C[C@H](NC(=O)c3c(F)cc(N[C@H](CC)C(F)(F)F)cc3F)C(=O)O)c3cccnc23)c(=O)n(C)c1CC [Example 176] | 0.9 nM |  | 
2 | Cc1cc(C)c(-c2ccc(C[C@H](NC(=O)c3c(F)cccc3F)C(=O)O)c3cccnc23)nc1C [Example 11, (S)-2-(2,6-difluorobenzamido)-3-(8-(3,5,6-trimethylpyridin-2-yl)quinolin-5-yl)propanoic acid] |  | 22.9 nM | 
3 | CCOCc1cc(OC)c(-c2ccc(C[C@H](NC(=O)c3c(Cl)cc4[nH]c(Cc5ccccc5)cc4c3Cl)C(=O)O)c3cccnc23)c(OC)c1 [Example 297] | 7.9 nM |  | 
4 | Cn1c(=O)n(-c2ccc(C[C@H](NC(=O)c3c(F)cc(N4CCOC[C@@H]4C(F)(F)F)cc3F)C(=O)O)c3cc(F)cnc23)c(=O)c2cnccc21 [Example 430] |  |  | EC50 [3]: 0.469 nM
5 | CC[C@@H](Nc1cc(F)c(C(=O)N[C@@H](Cc2ccc(-c3ccc(C#N)cc3Cl)c3ncccc23)C(=O)O)c(F)c1)C(F)(F)F [Example 74, (S)-3-(8-(2-chloro-4-cyanophenyl)quinolin-5-yl)-2-(2,6-difluoro-4-(((R)-1,1,1-trifluorobutan-2-yl)amino)benzamido)propanoic acid] |  | 13.6 nM | 
6 | CC[C@@H](Nc1cc(F)c(C(=O)N[C@@H](Cc2ccc(-c3c(C)n(C)c(=O)n(C)c3=O)c3ncccc23)C(=O)O)c(F)c1)C(F)(F)F [Example 114, (S)-2-(2,6-difluoro-4-(((R)-1,1,1-trifluorobutan-2-yl)amino)benzamido)-3-(8-(1,3,6-trimethyl-2,4-dioxo-1,2,3,4-tetrahydropyrimidin-5-yl)quinolin-5-yl)propanoic acid] |  | 0.6 nM | 
7 | CC[C@@H](Nc1cc(F)c(C(=O)N[C@@H](Cc2ccc(-c3c(C(F)(F)F)cc(C)n(C)c3=O)c3ncccc23)C(=O)O)c(F)c1)C(F)(F)F (single isomer, unassigned) [Example 107] |  | 0.2 nM | 
8 | CC[C@@H](Nc1cc(F)c(C(=O)N[C@@H](Cc2ccc(-c3cc4ccccc4n(C)c3=O)c3ncccc23)C(=O)O)c(F)c1)C(F)(F)F [Example 182] | 0.9 nM |  | 
9 | N#Cc1ccc(-c2ccc(C[C@H](NC(=O)c3c(Cl)cc4nc(C5CC5)[nH]c4c3Cl)C(=O)O)c3cccnc23)c(Cl)c1 [Example 179] | 37.7 nM |  | 
10 | CC[C@@H](Nc1cc(F)c(C(=O)N[C@@H](Cc2ccc(-c3c(C(F)(F)F)cc(C)n(C)c3=O)c3ncccc23)C(=O)O)cc1C)C(F)(F)F [Example 145, (S)-3-(8-(1,6-dimethyl-2-oxo-4-(trifluoromethyl)-1,2-dihydropyridin-3-yl)quinolin-5-yl)-2-(2-fluoro-5-methyl-4-(((R)-1,1,1-trifluorobutan-2-yl)amino)benzamido)propanoic acid] |  | 3.1 nM | 
11 | Cc1nc2c(s1)c(=O)n(-c1ccc(C[C@H](NC(=O)c3c(C)cc(N4CCOC[C@@H]4C(F)(F)F)cc3F)C(=O)O)c3cccnc13)c(=O)n2C [Example 410] |  |  | EC50 [3]: 0.054 nM
12 | N#Cc1ccc(-c2ccc(C[C@H](NC(=O)c3c(F)cc(N[C@H](c4ccccc4)C(F)F)cc3F)C(=O)O)c3cccnc23)c(Cl)c1 [Example 324] | 18.7 nM |  | 
13 | Cc1cc(N2CCOC[C@@H]2C(F)(F)F)cc(F)c1C(=O)N[C@@H](Cc1ccc(-n2c(=O)c3ncccc3n(C)c2=O)c2ncccc12)C(=O)O [Example 399, (S)-2-(2-fluoro-6-methyl-4-((R)-3-(trifluoromethyl)morpholino)benzamido)-3-(8-(1-methyl-2,4-dioxo-1,4-dihydropyrido[3,2-d]pyrimidin-3(2H)-yl)quinolin-5-yl)propanoic acid] |  |  | EC50 [3]: 0.1 nM
14 | N#Cc1ccc(-c2ccc(C[C@H](NC(=O)c3c(F)cc(N4CCOCC4)cc3F)C(=O)O)c3cccnc23)c(Cl)c1 [Example 79, (S)-3-(8-(2-chloro-4-cyanophenyl)quinolin-5-yl)-2-(2,6-difluoro-4-morpholinobenzamido)propanoic acid] |  | 26.1 nM | 
15 | Cc1cc(N2CCOC[C@@H]2C(F)(F)F)cc(F)c1C(=O)N[C@@H](Cc1ccc(-c2cc(C)c(C)n(C)c2=O)c2ncccc12)C(=O)O [Example 455] |  |  | EC50 [3]: 0.211 nM
16 | O=C(N[C@@H](Cc1ccc(-c2ccncn2)c2ncccc12)C(=O)O)c1c(F)cc(NS(=O)(=O)c2ccc(-c3ccnc(F)c3)cc2)cc1F [Example 56, (S)-2-(2,6-difluoro-4-((4-(2-fluoropyridin-4-yl)phenyl)sulfonamido)benzamido)-3-(8-(pyrimidin-4-yl)quinolin-5-yl)propanoic acid] |  | 9.1 nM | 
17 | Cn1c(=O)n(-c2ccc(C[C@H](NC(=O)c3c(F)cc(N4CCOC[C@@H]4C(F)(F)F)cc3F)C(=O)O)c3cccnc23)c(=O)c2ccncc21 [Example 474] |  |  | EC50 [3]: 0.112 nM
18 | CC[C@@H](Nc1cc(F)c(C(=O)N[C@@H](Cc2ccc(-c3c(C(F)(F)F)cc(C)n(C)c3=O)c3nc(C)ccc23)C(=O)O)c(F)c1)C(F)(F)F [Example 183] | 0.9 nM |  | 
19 | C[C@@H](Nc1cc(F)c(C(=O)N[C@@H](Cc2ccc(-c3ncccc3C(F)(F)F)c3ncccc23)C(=O)O)c(F)c1)C(F)(F)F [Example 283] | 5.7 nM |  | 
20 | O=C(N[C@@H](Cc1ccc(-c2ncccn2)c2ncccc12)C(=O)O)c1c(F)cc(NS(=O)(=O)c2ccc(-c3ccnc(F)c3)cc2)cc1F [Example 58, (S)-2-(2,6-difluoro-4-((4-(2-fluoropyridin-4-yl)phenyl)sulfonamido)benzamido)-3-(8-(pyrimidin-2-yl)quinolin-5-yl)propanoic acid] |  | 2 nM | 
21 | CC[C@@H](Nc1cc(F)c(C(=O)N[C@@H](Cc2ccc(-c3c(C(F)F)cc(C)n(C)c3=O)c3ncccc23)C(=O)O)c(F)c1)C(F)(F)F [Example 167] | 0.4 nM |  | 
22 | Cn1c(=O)n(-c2ccc(C[C@H](NC(=O)c3c(F)cc(N4CCOC[C@@H]4C(F)(F)F)cc3Cl)C(=O)O)c3cccnc23)c(=O)c2ccncc21 [Example 414] |  |  | EC50 [3]: 0.048 nM
23 | CC[C@@H](Nc1cc(F)c(C(=O)N[C@@H](Cc2ccc(-c3c(C(F)(F)F)cc(C)n(C)c3=O)c3ncccc23)C(=O)O)c(F)c1)C(F)(F)F (single isomer, unassigned) [Example 147] |  | 1.9 nM | 
24 | CC[C@@H](Nc1cc(F)c(C(=O)N[C@@H](Cc2ccc(-c3nc(C)ccc3Cl)c3ncccc23)C(=O)O)c(F)c1)C(F)(F)F [Example 321] | 15.8 nM |  | 
25 | N#Cc1ccc(-c2ccc(C[C@H](NC(=O)c3c(F)cc(NC(=O)c4ccccc4C(F)(F)F)cc3F)C(=O)O)c3cccnc23)c(Cl)c1 [Example 337] | 26.2 nM |  | 
26 | CC[C@@H](Nc1cc(F)c(C(=O)N[C@@H](Cc2ccc(-c3nc(C)ccc3OC)c3ncccc23)C(=O)O)c(F)c1)C(F)(F)F [Example 120, (S)-2-(2,6-difluoro-4-(((R)-1,1,1-trifluorobutan-2-yl)amino)benzamido)-3-(8-(3-methoxy-6-methylpyridin-2-yl)quinolin-5-yl)propanoic acid] |  | 1.3 nM | 

Continued, in another order:

Row | EC50 [1] | EC50 [2] | Compound | other results
27 | 15.1 nM |  | O=C(N[C@@H](Cc1ccc(-c2nccc(C(F)(F)F)n2)c2ncccc12)C(=O)O)c1c(F)cc(N2CCOC[C@@H]2C(F)(F)F)cc1F [Example 189] | 
28 | 1.1 nM |  | Cc1cc(C(F)(F)F)c(-c2ccc(C[C@H](NC(=O)c3c(F)cc(N4CCO[C@@H](C)[C@H]4C(F)(F)F)cc3F)C(=O)O)c3cccnc23)c(=O)n1C [Example 227] | 
